This note sets out measurements from publication PMC7269481, “ZN148 Is a Modular Synthetic Metallo-β-Lactamase Inhibitor That Reverses Carbapenem Resistance in Gram-Negative Pathogens In Vivo” (Antimicrobial Agents and Chemotherapy, 2020).

“Also recorded” adds a separate entry of the source.

One data set deals with HepG2 cells. The data set is described as follows: In vitro toxicity, alamarBlue viability. The class given is cell-based, human. The note with it: Homo sapiens, HepG2, 24 h. Here is the method: The human hepatoblastoma HepG2 cell line (HB-8065; ATCC, Manassas, VA) was cultured in DMEM-GlutaMAX (5.5 mM glucose; Thermo Fisher) supplemented with 10% fetal bovine serum (Sigma-Aldrich), streptomycin (100 μg/ml; Gibco/Thermo Fisher), and penicillin (100 U/ml; Gibco/Thermo Fisher) at 37°C in 5% CO2. For viability assays, cells were seeded in white 96-well Nunclon plates (Sigma-Aldrich) at a density of 20,000 cells/well and left overnight to adhere. ZN148 and TPA (Sigma-Aldrich, Darmstadt, Germany) dissolved in dimethyl sulfoxide (DMSO; (Sigma-Aldrich) were added to the white 96-well plates containing 20,000 HepG2 cells/well at concentrations ranging from 1 to 1 × 10^−3 mM (a DMSO concentration kept below 1%), followed by incubation for 24 h at 37°C in 5% CO2. After 24 h, alamarBlue cell viability reagent (Thermo Fisher, Carlsbad, CA) was added (10% final concentration), followed by incubation for 4 h at 37°C. The proportion of viable cells in each well was measured in a fluorescence plate reader (Clariostar; BMGlabtech, Germany) at excitation 550 nm/emission 603 nm ([56]). Data from eight replicates were fitted by nonlinear regression to determine IC50 values using Prism (GraphPad Software, Inc.).
A general note: Alamar Blue is a resazurin reagent that responds to reducing activity.

For a further data set, the system named is female BALB/c mice. The data set is described as follows: In vivo tolerance (maximum tolerated dose study). The note with it: weekly i.p. doses 4 to 128 mg/kg. Here is the method: In vivo tolerance of ZN148 was performed by Antineo (Lyon, France). Female BALB/c mice (4 weeks old, approximately 20 g; Charles River, L’Arbresle, France) were acclimatized 4 days in the animal facility before the initiation of experiments. Groups of six mice were either untreated or treated with 200 μl of ZN148 (0.4 to 12.8 g/liter) i.p. once a week. Doses were doubled each week (4 to 128 mg/kg) in the absence of any observed weight loss or modification in behavior. Individual weights were monitored 4 days a week. The relative weights were calculated as ratios between the weight of the day and the weight at the initiation of the experiment. Animals were also followed for macroscopic modifications in behavior. The protocol for experiments in mice was approved by the University of Lyon Animal Ethics Committee (Comité d’Ethique en Expérimentation Animale de l’Université Claude Bernard [Lyon, France], authorization number DR2015-09).

In data set [1] the target is T1, recombinant human glyoxylase II (Homo sapiens, UniProt Q16775).
T1 construct: purchased R&D Systems
The data set is described as follows: Interaction with human glyoxylase II. In kind it is biochemical. The note with it: 500 μM. Here is the method: Recombinant human glyoxylase II (rHGly II; R&D Systems) was incubated with or without ZN148 (final concentrations of 125, 250, and 500 μM) for 10 and 30 min at 25°C in 50 mM Tris buffer (Merck) supplemented with 250 mM NaCl (pH 7.5). Then, 50 μl of substrate mixture containing 2 mM S-lactoylglutathione and 400 μM 5,5′-dithiobis(2-nitrobenzoic acid) (Sigma-Aldrich) was mixed with 50 μl of the preincubated rHGly II at a final enzyme concentration of 0.2 ng/μl. The initial enzymatic velocity was measured at 405 nm in 96-well plates (Thermo Fisher Scientific, Roskilde, Denmark) at 25°C in a SpectraMax Plus plate reader (Molecular Devices). EDTA (Merck) was included as a control.

Data set [2] deals with Other Enterobacterales with MBLs (n=10). Nature of the data set: Meropenem MIC distribution, other Enterobacterales with MBLs. In kind it is cell-based. The note with it: MEM alone or +50 µM ZN148. The protocol: MICs of carbapenems alone and in combination with inhibitors were determined by broth microdilution according to the Clinical and Laboratory Standards Institute (CLSI) guidelines ([48]) using either premade plates (TREK Diagnostic Systems/Thermo Fisher Scientific, East Grinstead, United Kingdom) with meropenem or in-house-prepared plates with meropenem, imipenem, and doripenem. ZN148 and other inhibitors were tested at a fixed concentration of 50 μM. Cation-adjusted Mueller-Hinton medium (TREK Diagnostic Systems/Thermo Fisher Scientific; Becton Dickinson, Franklin Lakes, NJ) were used as growth medium. The plates were incubated for 20 h at 37°C. ZN148, ZN222, ZN223, ZN228, and TPA were initially tested in combination with meropenem using two indicator strains: NDM-1-producing K. pneumoniae ([49], [50]) and VIM-2-producing P. aeruginosa ([51]). The activity of ZN148 were subsequently tested against two extended strain collections: (i) in combination with meropenem against MBL-producing Enterobacterales (n = 62), MBL-producing P. aeruginosa (n = 9) and MBL- and class D carbapenemase-coproducing Enterobacterales (n = 5) from the strain collection at the Norwegian National Advisory Unit on Detection of Antimicrobial Resistance and (ii) in combination with meropenem, imipenem, and doripenem against globally collected MBL-producing E. coli (n = 87), K. pneumoniae (n = 85), P. aeruginosa (n = 52), and A. baumannii (n = 6), MBL- and class A/D carbapenemase-coproducing E. coli (n = 11), K. pneumoniae (n = 15) and A. baumannii (n = 7) at IHMA Europe, Sàrl, Switzerland. E. coli ATCC 25922 and P. aeruginosa ATCC 27853 were used as quality control strains. The MBL inhibitors were also tested for intrinsic antibacterial activity against the strains.

Data set [3] has as its system NDM-1-producing K. pneumoniae 50752501. Nature of the data set: Meropenem MIC of the in vivo strain. The class given is cell-based. The note with it: Klebsiella pneumoniae; read-out: MEM MIC. Here is the method: MICs of carbapenems alone and in combination with inhibitors were determined by broth microdilution according to the Clinical and Laboratory Standards Institute (CLSI) guidelines ([48]) using either premade plates (TREK Diagnostic Systems/Thermo Fisher Scientific, East Grinstead, United Kingdom) with meropenem or in-house-prepared plates with meropenem, imipenem, and doripenem. ZN148 and other inhibitors were tested at a fixed concentration of 50 μM. Cation-adjusted Mueller-Hinton medium (TREK Diagnostic Systems/Thermo Fisher Scientific; Becton Dickinson, Franklin Lakes, NJ) were used as growth medium. The plates were incubated for 20 h at 37°C. ZN148, ZN222, ZN223, ZN228, and TPA were initially tested in combination with meropenem using two indicator strains: NDM-1-producing K. pneumoniae ([49], [50]) and VIM-2-producing P. aeruginosa ([51]). […]

In general, IC50 refers to the midpoint of a concentration-inhibition curve. On to `CN(C[C@H](O)[C@@H](O)[C@H](O)[C@H](O)CO)C(=O)c1ccc(CN(Cc2ccccn2)Cc2ccccn2)nc1` [ZN148], for which, in the data set on HepG2 cells, the IC50 was above 100 µM. In the data set on female BALB/c mice, the “clinical signs (hair loss or bristly hair, immobility, prostration) test vs control groups” value is given as “no significant differences” and the “loss of weight compared to initial weight” value was below 10%. The “inhibitory activity against recombinant human glyoxylase II” value in data set [1] is recorded as “no inhibition; also recorded: no inhibitory activity”.
The term MIC denotes the smallest concentration in the dilution series that meets the test's criterion for growth inhibition. Take `C[C@@H](O)[C@H]1C(=O)N2C(C(=O)O)=C(S[C@@H]3CN[C@H](C(=O)N(C)C)C3)[C@H](C)[C@H]12` [meropenem]: the “No. of strains with indicated MIC” value in data set [2] (MIC 4 mg/L) is reported as 1; in data set [2] (MIC 8 mg/L) it was 2; in data set [2] (MIC 16 mg/L), 3; in data set [2] (MIC 32 mg/L), 2; in data set [2] (MIC ≥64 mg/L), 2. In addition, the MIC in data set [3] is 64 µg/mL.
